One assay deals with FADD−/− Jurkat cells. Description: Necroptosis inhibition assay, TNF-α-induced necroptosis (CellTiter-Glo 2.0). The format is cell-based, human. Particulars: TNF-α 15 ng/mL; for Necroptosis inhibition assay (Rescue %) 1 μM: compound 1 μM; for Necroptosis inhibition assay (Rescue %) 10 μM: compound 10 μM. An outline of the steps:
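Compound is added to cells at final concentrations of 0.1, 1 and 10 μM and left 30 minutes at room temperature. Necroptosis is induced with 15 ng/mL TNF-α, culture continues 20 to 24 hours at 37° C, and ATP-based luminescence reports viability.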
A general note: In ATP-based viability assays light output follows the ATP content of the culture.

The target of assay [1] is T1, MLKL (Homo sapiens, UniProt Q8NB16).
T1 sequence (Q8NB16 1-471): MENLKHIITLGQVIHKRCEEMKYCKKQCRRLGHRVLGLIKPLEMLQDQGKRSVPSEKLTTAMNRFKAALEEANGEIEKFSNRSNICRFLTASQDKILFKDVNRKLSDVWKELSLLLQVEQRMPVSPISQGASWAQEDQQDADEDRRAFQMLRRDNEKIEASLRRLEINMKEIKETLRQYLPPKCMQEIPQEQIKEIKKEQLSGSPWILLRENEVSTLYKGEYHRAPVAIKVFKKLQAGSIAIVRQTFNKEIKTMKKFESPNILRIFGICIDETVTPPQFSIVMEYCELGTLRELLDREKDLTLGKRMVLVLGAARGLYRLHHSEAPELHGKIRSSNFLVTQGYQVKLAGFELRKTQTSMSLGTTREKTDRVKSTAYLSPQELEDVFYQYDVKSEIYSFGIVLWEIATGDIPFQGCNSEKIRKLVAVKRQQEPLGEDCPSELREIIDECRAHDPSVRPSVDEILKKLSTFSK
Description: MLKL degradation assay in HepG2 cell line (western blot). The format is cell-based. As to conditions: cell line not given; for Degradation assay (Degradation %) 1 μM: compound 1 μM; for Degradation assay (Degradation %) 10 μM: compound 10 μM. Further details: endogenous in cells; host or cells: HepG2 or HaCaT. An outline of the steps:
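Chemiluminescent western blot signal reports remaining MLKL protein in HepG2 cells after 20-24 h treatment with compound at a final 1 or 10 μM. Equal protein (10-15 μg, BCA) is loaded per lane.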

Assay [2] concerns the target T1, MLKL. Put plainly: Measurement of binding affinity with MLKL receptor (competitive binding assay, Kd). More on the design: made in house; host or cells: HEK 293 cell line (T7 phage in E. coli BL21-derived host is also described). An outline of the steps:
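MLKL was produced in HEK 293 cells and tagged with DNA for detection. Liganded beads were blocked with excess biotin and washed to cut non-specific binding, then compounds (111× DMSO stocks, 0.9% DMSO in assay) competed for binding. Eluate kinase was measured by qPCR for Kd.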

Broadly, the Kd is the free concentration of one partner at which half of the binding sites on the other are occupied at equilibrium, for simple one-to-one binding. A low value points to a tighter complex. For the compound `Nc1ncc(-c2cnn(C3CCN(C(=O)COC4CCN(c5cccc6c5C(=O)N(C5CCC(=O)NC5=O)C6=O)CC4)CC3)c2)nc1C(=O)O[C@@H](C(=O)Nc1ccc(F)cc1)c1ccccc1` (stereo partly drawn) [TDH-399, (R)-2-((4-fluorophenyl)amino)-2-oxo-1-phenylethyl 3-amino-6-(1-(1-(2-((1-(2-(2,6-dioxopiperidin-3-yl)-1,3-dioxoisoindolin-4-yl)piperidin-4-yl)oxy)acetyl)piperidin-4-yl)-1H-pyrazol-4-yl)pyrazine-2-carboxylate], in the assay on FADD−/− Jurkat cells, the “Necroptosis inhibition assay (Rescue %) 1 μM” value turned out to be 34.21% and the “Necroptosis inhibition assay (Rescue %) 10 μM” value was 27.35%. Moreover, at MLKL [1], the “Degradation assay (Degradation %) 1 μM” value was found to be 74.40% and the “Degradation assay (Degradation %) 10 μM” value is on record as 71.63%. In addition, the Kd on MLKL [2] is 7.6 nM.

As for `Nc1ncc(-c2cnn(C3CCN(CCCCCCNC(=O)C4CCN(c5cccc6c5C(=O)N(C5CCC(=O)NC5=O)C6=O)CC4)CC3)c2)nc1C(=O)O[C@@H](C(=O)Nc1ccc(F)cc1)c1ccccc1` (stereo partly drawn) [TDH-108, (R)-2-((4-fluorophenyl)amino)-2-oxo-1-phenylethyl 3-amino-6-(1-(1-(6-(1-(2-(2,6-dioxopiperidin-3-yl)-1,3-dioxoisoindolin-4-yl)piperidine-4-carboxamido)hexyl)piperidin-4-yl)-1H-pyrazol-4-yl)pyrazine-2-carboxylate], in the assay on FADD−/− Jurkat cells, the “Necroptosis inhibition assay (Rescue %) 1 μM” value is given as 75.49% and the “Necroptosis inhibition assay (Rescue %) 10 μM” value turned out to be 43.94%. For the same compound, at MLKL [1], the “Degradation assay (Degradation %) 1 μM” value came to 48.06% and the “Degradation assay (Degradation %) 10 μM” value was 43.66%. The compound further returned a Kd at MLKL [2] of 4.4 nM.

Take `Nc1ncc(-c2cnn(C3CCN(C(=O)CC4CCN(C(=O)CNc5cccc6nnn(C7CCC(=O)NC7=O)c(=O)c56)CC4)CC3)c2)nc1C(=O)O[C@@H](C(=O)Nc1ccc(F)cc1)c1ccccc1` (stereo partly drawn) [TDH-411, (R)-2-((4-fluorophenyl)amino)-2-oxo-1-phenylethyl 3-amino-6-(1-(1-(2-(1-((3-(2,6-dioxopiperidin-3-yl)-4-oxo-3,4-dihydrobenzo[d][1,2,3]triazin-5-yl)glycyl)piperidin-4-yl)acetyl)piperidin-4-yl)-1H-pyrazol-4-yl)pyrazine-2-carboxylate]: in the assay with FADD−/− Jurkat cells (FADD−/− Jurkat cells), the “Necroptosis inhibition assay (Rescue %) 1 μM” value came out at 9.91% and the “Necroptosis inhibition assay (Rescue %) 10 μM” value amounted to 10.81%. For the same compound, at MLKL [1], the “Degradation assay (Degradation %) 1 μM” value stood at 53.86% and the “Degradation assay (Degradation %) 10 μM” value is 44.78%. Binding on MLKL [2] was put at a Kd of 5.7 nM.

Take `Nc1ncc(-c2cnn(C3CCN(C(=O)COCCOCCNC(=O)CNc4ccc5c(c4)C(=O)N(C4CCC(=O)NC4=O)C5=O)CC3)c2)nc1C(=O)O[C@@H](C(=O)Nc1ccc(F)cc1)c1ccccc1` (stereo partly drawn) [TDH-191, (R)-2-((4-fluorophenyl)amino)-2-oxo-1-phenylethyl 3-amino-6-(1-(1-(2-(2-(2-(2-((2-(2,6-dioxopiperidin-3-yl)-1,3-dioxoisoindolin-5-yl)amino)acetamido)ethoxy)ethoxy)acetyl)piperidin-4-yl)-1H-pyrazol-4-yl)pyrazine-2-carboxylate]: in the assay with FADD−/− Jurkat cells, the “Necroptosis inhibition assay (Rescue %) 1 μM” value is on record as 77.85% and the “Necroptosis inhibition assay (Rescue %) 10 μM” value was 49.93%. Moreover, on MLKL [1], the “Degradation assay (Degradation %) 1 μM” value turned out to be 44.99% and the “Degradation assay (Degradation %) 10 μM” value is listed as 5.25%. Further, the Kd on MLKL [2] was determined as 4.9 nM.

With `COc1ccc(C(=O)N2CCC(CN3CCN(CCCN4CCC(n5cc(-c6cnc(N)c(C(=O)O[C@@H](C(=O)Nc7ccc(F)cc7)c7ccccc7)n6)cn5)CC4)CC3)CC2)cc1N1CCC(=O)NC1=O` [TDH-478, (R)-2-((4-fluorophenyl)amino)-2-oxo-1-phenylethyl 3-amino-6-(1-(1-(3-(4-((1-(3-(2,4-dioxotetrahydropyrimidin-1(2H)-yl)-4-methoxybenzoyl)piperidin-4-yl)methyl)piperazin-1-yl)propyl)piperidin-4-yl)-1H-pyrazol-4-yl)pyrazine-2-carboxylate], in the assay on FADD−/− Jurkat cells (FADD−/− Jurkat cells), the “Necroptosis inhibition assay (Rescue %) 1 μM” value came out at 92.11% and the “Necroptosis inhibition assay (Rescue %) 10 μM” value is recorded as 43.19%. In addition, at MLKL [1], the “Degradation assay (Degradation %) 1 μM” value was determined as 89.29% and the “Degradation assay (Degradation %) 10 μM” value worked out at 86.88%. The compound also came in with a Kd on MLKL [2] of 0.26 nM.

Take `Nc1ncc(-c2cnn(C3CCN(CCCN4CCN(C(=O)C5CCN(c6cccc7c6C(=O)N(C6CCC(=O)NC6=O)C7=O)CC5)CC4)CC3)c2)nc1C(=O)OC(C(=O)Nc1ccc(F)cc1)c1ccccc1` (stereo not drawn) [TDH-239, 2-((4-fluorophenyl)amino)-2-oxo-1-phenylethyl 3-amino-6-(1-(1-(3-(4-(1-(2-(2,6-dioxopiperidin-3-yl)-1,3-dioxoisoindolin-4-yl)piperidine-4-carbonyl)piperazin-1-yl)propyl)piperidin-4-yl)-1H-pyrazol-4-yl)pyrazine-2-carboxylate]: in the assay with FADD−/− Jurkat cells, the “Necroptosis inhibition assay (Rescue %) 1 μM” value stood at 40.3% and the “Necroptosis inhibition assay (Rescue %) 10 μM” value is reported as 23.29%. For the same compound, on MLKL [1], the “Degradation assay (Degradation %) 1 μM” value is 53.9% and the “Degradation assay (Degradation %) 10 μM” value stood at 65.78%. Moreover, the Kd on MLKL [2] was 3.8 nM.

Turning to `Nc1ncc(-c2cnn(C3CCN(CCC4CCN(C(=O)C5CCN(C6=CC(=O)N(C7CCC(=O)NC7=O)C6=O)CC5)CC4)CC3)c2)nc1C(=O)O[C@@H](C(=O)Nc1ccc(F)cc1)c1ccccc1` (stereo partly drawn) [TDH-524, (R)-2-((4-fluorophenyl)amino)-2-oxo-1-phenylethyl 3-amino-6-(1-(1-(2-(1-(1-(1-(2,6-dioxopiperidin-3-yl)-2,5-dioxo-2,5-dihydro-1H-pyrrol-3-yl)piperidine-4-carbonyl)piperidin-4-yl)ethyl)piperidin-4-yl)-1H-pyrazol-4-yl)pyrazine-2-carboxylate], in the assay with FADD−/− Jurkat cells (FADD−/− Jurkat cells), the “Necroptosis inhibition assay (Rescue %) 1 μM” value is reported as 48.61% and the “Necroptosis inhibition assay (Rescue %) 10 μM” value stood at 15.69%. For the same compound, at MLKL [1], the “Degradation assay (Degradation %) 1 μM” value was 89.35% and the “Degradation assay (Degradation %) 10 μM” value turned out to be 83.06%. The same compound registered a Kd at MLKL [2] of 0.99 nM.

As for `Nc1ncc(-c2cnn(C3CCN(CCOC4CCN(C(=O)CC5CCN(c6ccc7c(c6)C(=O)N(C6CCC(=O)NC6=O)C7=O)CC5)CC4)CC3)c2)nc1C(=O)O[C@@H](C(=O)Nc1ccc(F)cc1)c1ccccc1` (stereo partly drawn) [TDH-372, (R)-2-((4-fluorophenyl)amino)-2-oxo-1-phenylethyl 3-amino-6-(1-(1-(2-((1-(2-(1-(2-(2,6-dioxopiperidin-3-yl)-1,3-dioxoisoindolin-5-yl)piperidin-4-yl)acetyl)piperidin-4-yl)oxy)ethyl)piperidin-4-yl)-1H-pyrazol-4-yl)pyrazine-2-carboxylate], in the assay with FADD−/− Jurkat cells, the “Necroptosis inhibition assay (Rescue %) 1 μM” value turned out to be 26.36% and the “Necroptosis inhibition assay (Rescue %) 10 μM” value was 28.54%. At MLKL [1], the “Degradation assay (Degradation %) 1 μM” value came to 78.14% and the “Degradation assay (Degradation %) 10 μM” value is on record as 81.79%. Besides, the Kd on MLKL [2] turned out to be 12 nM.

For `Nc1ncc(-c2cnn(C3CN(CC4CCN(C(=O)CNc5cccc6c5C(=O)N(C5CCC(=O)NC5=O)C6=O)CC4)C3)c2)nc1C(=O)OC(C(=O)Nc1ccc(F)cc1)c1ccccc1` (stereo not drawn) [TDH-296, 2-((4-fluorophenyl)amino)-2-oxo-1-phenylethyl 3-amino-6-(1-(1-((1-((2-(2,6-dioxopiperidin-3-yl)-1,3-dioxoisoindolin-4-yl)glycyl)piperidin-4-yl)methyl)azetidin-3-yl)-1H-pyrazol-4-yl)pyrazine-2-carboxylate], in the assay with FADD−/− Jurkat cells, the “Necroptosis inhibition assay (Rescue %) 1 μM” value is recorded as 25.58% and the “Necroptosis inhibition assay (Rescue %) 10 μM” value turned out to be 26.91%. Further, on MLKL [1], the “Degradation assay (Degradation %) 1 μM” value stood at 75.78% and the “Degradation assay (Degradation %) 10 μM” value came to 62.01%. On MLKL [2], binding was characterised by a dissociation constant (Kd) of 22 nM.

These data come from US20240252488A1 (KOREA RESEARCH INSTITUTE OF CHEMICAL TECHNOLOGY, priority 2020, published 2024).
